Assay results as given in ChEMBL document CHEMBL5726883, “Pyrazines as modulators of GPR6” (2019).

Target: G-protein coupled receptor 6 (Homo sapiens, UniProt P46095)
Test: A.1 Inhibition of cAMP Activity of GPR6 In Vitro Assay: This cell based assay measures the ability of compounds to inhibit the constitutive cAMP activity of GPR6 receptor expressed in CHO-K1 cells. CHO cells were stably expressed with GPR6 receptor, whose expression is controlled by a tetracycline inducible element. The cells were cultured in medium containing F12K, 10% FBS, 1% Penn/Strep, 200 ug/mL Hygromycin. GPR6 receptor expression was induced for 20 hrs with 10 µg/ml doxycycline (sigma D9891) in growth media. After addition of doxycycline cells were plated at a density of 250-500 cells per well in half-volume black clear bottom plates (Costar) and place in an incubator (37°, 5% C(O)2) for 20 hours prior to cAMP assays.Culture media was removed from cells and they were washed with […] of Ringer's Buffer (MgCl2 0.047 mg/mL, NaH2PO4 0.18 mg/mL, Na2HPO4 0.1 mg/mL, KCl 0.34 mg/mL, NaHC(O)3 1.26 mg/mL, D-glucose 1.8 mg/mL, NaCl 7 mg/mL; pH=7.4). Compounds suspended in DMSO were diluted in Ringer's Buffer containing 0.5% fatty acid free BSA and incubated on cells for 45 min at 37° and 5% C(O)2. After incubation cells were incubated for 10 min at room temp with Eu-cAMP tracer solution from a Perkin Elmer Lance HTRF UltracAMP assay kit (TRF0264).

Chain of G-protein coupled receptor 6 (P46095 whole entry): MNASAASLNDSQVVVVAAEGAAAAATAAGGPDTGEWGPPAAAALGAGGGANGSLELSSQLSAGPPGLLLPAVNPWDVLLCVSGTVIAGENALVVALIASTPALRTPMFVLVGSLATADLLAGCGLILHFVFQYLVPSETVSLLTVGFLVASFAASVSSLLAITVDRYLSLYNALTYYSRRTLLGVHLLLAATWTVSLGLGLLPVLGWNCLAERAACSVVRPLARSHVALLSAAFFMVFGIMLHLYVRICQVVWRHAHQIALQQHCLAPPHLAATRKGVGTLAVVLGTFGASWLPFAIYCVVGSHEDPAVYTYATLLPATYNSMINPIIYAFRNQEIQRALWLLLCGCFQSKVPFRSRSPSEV

CC(C)Nc1nc(COCCN(C)C)c(C#N)nc1N1CCN(Cc2ccc(F)cc2F)CC1
EC50: 62.5 µM
